Data reported in patent publication US7604978B2, “Inhibition of biofilm formation” (Sequoia Sciences, Inc., priority 2004, dated 2009).

Legend:
E. coli JM109 = assay: Biofilm inhibition by asiatic acid; format: cell-based; details: Escherichia coli, JM 109, E. coli JM109, MC9 glucose media
Description: Inhibition of biofilm formation by E. coli K12 [R1drd19], P. aeruginosa PAO1, and V harveyi BB120 by the addition of 10 μg/mL ursolic acid. For E. coli K12 [R1drd19], data were collected 16 hours after addition of ursolic acid to a 24 hour biofilm in LB medium; for P. aeruginosa PAO1, data were collected 18 hours after addition of ursolic acid with inoculation in LB medium plus 1% sodium citrate; and for V. harveyi BB120, data were collected 18 hours after addition of ursolic acid with inoculation in M9 medium. All biofilm mass readings at OD540 were normalized based on the reading of wild type without ursolic acid which was normalized to 1. One standard deviation is shown.
Example 1 was repeated, except asiatic acid was added with inoculation in E. coli JM109 in MC9 glucose media.

E. coli JM109 genes = assay: DNA microarray, genes induced by asiatic acid; format: cell-based; details: M9C glucose media
Description: The same amount of ethanol was supplemented to eliminate solvent effects. The cultures were grown to an OD600 of 0.9. The cells were centrifuged in a microcentrifuge for 15 seconds at 20,000×g in mini bead beater tubes (Biospec, Bartlesville, Okla.) that were cooled to -80° C. before sampling. The cell pellets were flash frozen in a dry ice-ethanol bath and stored at -80° C. until RNA isolation. To lyse the cells, 1.0 mL RLT buffer (Qiagen, Inc., Valencia, Calif.) and 0.2 mL 0.1 mm zirconia/silica beads (Biospec) were added to the frozen bead beater tubes containing the cell pellets. The tubes were closed tightly and beat for 30 seconds at the maximum speed in a mini bead beater (cat. no. 3110BX, Biospec). The total RNA was isolated by following the protocol of the RNeasy Mini Kit (Qiagen) including an on-column DNase digestion with RNase-free DNase I (Qiagen). OD260 was used to quantify the RNA yield. OD260/OD280 and […]/16S rRNA were measured using a 2100 Bioanalyzer (Agilent Technologies, Palo Alto, Calif.) to check the purity and integrity of RNA (RNeasy Mini handbook, Qiagen). The E. coli DNA microarrays were prepared as described previously by Wei, Y. et al (Journal of Bacteriology, 2001, 183 (2) p. 545-556). […] The double-strand PCR products were denatured in 50% dimethyl sulfoxide and spotted onto aminosilane slides (Full Moon Biosystems, Sunnyvale, Calif.) as probes to hybridize with the mRNA-derived cDNA samples. It has been shown that each array can detect 4228 of the 4290 E. coli ORFs. Each gene has two spots per slide. Briefly, the total RNA from the E. coli K12 samples grown with and without ursolic acid was first converted into labeled cDNA. […] The Cy3-labeled sample without ursolic acid and the Cy5-labeled ursolic acid sample (with 10 or 30 μg/mL ursolic acid) were hybridized on the first slide. Similarly, the Cy5-labeled sample without ursolic acid and the Cy3-labeled ursolic acid sample were hybridized on the second slide. Since each gene has two spots on a slide, the two hybridizations generated eight data points for each gene (four points for the sample without ursolic acid and four points for the ursolic acid sample). The microarray experiments with dye-swapping were repeated for both concentrations of ursolic acid. […] The arrays were rinsed with double-distilled water and were spun dry by centrifugation. Labeled cDNA (6 μg) was concentrated to 10 μl of total volume and was mixed with 10 μl of 4×cDNA hybridization solution (Full Moon Biosystems) and 20 μl of formamide (EM Science, Gibbstown, N.J.). The hybridization mix was heated to 95° C. for 2 min and was added to the DNA microarrays; each array was covered with a coverslip (Corning, Big Flats, N.Y.) and was incubated overnight at 37° C. for hybridization. When the hybridization was finished, the coverslips were removed in 1×SSC-0.1% SDS at room temperature, and the arrays were washed once for 5 min in 1×SSC-0.1% SDS at 40° C., twice for 10 min in 0.1×SSC-0.1% SDS at 40° C., and twice for 1 min in 0.1×SSC at 40° C. The arrays were quickly rinsed by dipping in room-temperature double-distilled water and were then spun dry by centrifugation. The hybridized slides were scanned with the Generation III Array Scanner (Molecular Dynamics Corp.). Readings at 570 and 670 nm was used to quantify the probes labeled with Cy3 and Cy5 separately. The signal was quantified with Array Vision 4.0 or 6.0 software (Imaging Research, St. Catherines, Ontario, Canada). […] P-values were calculated on log-transformed, normalized intensities. Including the p-value criterion ensures the reliability of the induced/repressed gene list. Normalization was relative to the median total fluorescent intensity per slide per channel. Example 3 was repeated, except asiatic acid ([…]) was added instead of ursolic acid.

C[C@H]1[C@H](C)CC[C@]2(C(=O)O)CC[C@]3(C)C(=CC[C@@H]4[C@@]5(C)C[C@@H](O)[C@H](O)[C@@](C)(CO)[C@@H]5CC[C@]43C)[C@H]12 [asiatic acid]
3.03: ER (expression ratio) gene yciW (E. coli JM109 genes; 10 μg/mL asiatic acid) | ER (expression ratio) gene cysH (E. coli JM109 genes; 30 μg/mL asiatic acid) | ER (expression ratio) gene ftn (E. coli JM109 genes; 30 μg/mL asiatic acid)
2.46: ER (expression ratio) gene b2531 (E. coli JM109 genes; 10 μg/mL asiatic acid) | ER (expression ratio) gene pssR (E. coli JM109 genes; 10 μg/mL asiatic acid) | ER (expression ratio) gene tauA (E. coli JM109 genes; 10 μg/mL asiatic acid) | ER (expression ratio) gene ybgR (E. coli JM109 genes; 10 μg/mL asiatic acid) | ER (expression ratio) gene b0829 (E. coli JM109 genes; 30 μg/mL asiatic acid) | ER (expression ratio) gene ybgR (E. coli JM109 genes; 30 μg/mL asiatic acid) | ER (expression ratio) gene yrbL (E. coli JM109 genes; 30 μg/mL asiatic acid)
2.83: ER (expression ratio) gene b0829 (E. coli JM109 genes; 10 μg/mL asiatic acid) | ER (expression ratio) gene iIvG_1 (E. coli JM109 genes; 10 μg/mL asiatic acid) | ER (expression ratio) gene yicG (E. coli JM109 genes; 10 μg/mL asiatic acid) | ER (expression ratio) gene yedO (E. coli JM109 genes; 30 μg/mL asiatic acid) | ER (expression ratio) gene yicL (E. coli JM109 genes; 30 μg/mL asiatic acid)
12.13: ER (expression ratio) gene sbp (E. coli JM109 genes; 30 μg/mL asiatic acid)
13.93: ER (expression ratio) gene cbl (E. coli JM109 genes; 10 μg/mL asiatic acid)
5.28: ER (expression ratio) gene ygbE (E. coli JM109 genes; 30 μg/mL asiatic acid)
4.00: ER (expression ratio) gene cysA (E. coli JM109 genes; 10 μg/mL asiatic acid) | ER (expression ratio) gene fliY (E. coli JM109 genes; 10 μg/mL asiatic acid) | ER (expression ratio) gene cysJ (E. coli JM109 genes; 30 μg/mL asiatic acid) | ER (expression ratio) gene cysW (E. coli JM109 genes; 30 μg/mL asiatic acid) | ER (expression ratio) gene yaeG (E. coli JM109 genes; 30 μg/mL asiatic acid)
4.59: ER (expression ratio) gene cysH (E. coli JM109 genes; 10 μg/mL asiatic acid) | ER (expression ratio) gene cysK (E. coli JM109 genes; 10 μg/mL asiatic acid) | ER (expression ratio) gene cysW (E. coli JM109 genes; 10 μg/mL asiatic acid) | ER (expression ratio) gene yaeG (E. coli JM109 genes; 10 μg/mL asiatic acid)
6.96: ER (expression ratio) gene cysD (E. coli JM109 genes; 10 μg/mL asiatic acid) | ER (expression ratio) gene ygbE (E. coli JM109 genes; 10 μg/mL asiatic acid) | ER (expression ratio) gene cysC (E. coli JM109 genes; 30 μg/mL asiatic acid)
2.64: ER (expression ratio) gene b1729 (E. coli JM109 genes; 10 μg/mL asiatic acid) | ER (expression ratio) gene pstS (E. coli JM109 genes; 10 μg/mL asiatic acid) | ER (expression ratio) gene yrbL (E. coli JM109 genes; 10 μg/mL asiatic acid) | ER (expression ratio) gene b2670 (E. coli JM109 genes; 30 μg/mL asiatic acid) | ER (expression ratio) gene bolA (E. coli JM109 genes; 30 μg/mL asiatic acid) | ER (expression ratio) gene msrA (E. coli JM109 genes; 30 μg/mL asiatic acid) | ER (expression ratio) gene yaiB (E. coli JM109 genes; 30 μg/mL asiatic acid)
6.06: ER (expression ratio) gene cysB (E. coli JM109 genes; 10 μg/mL asiatic acid)
18.38: ER (expression ratio) gene nlpA (E. coli JM109 genes; 10 μg/mL asiatic acid) | ER (expression ratio) gene sbp (E. coli JM109 genes; 10 μg/mL asiatic acid)
~75%: inhibition at 5 µg/mL (E. coli JM109; 5 μg/ml)
10.56: ER (expression ratio) gene cysC (E. coli JM109 genes; 10 μg/mL asiatic acid)
2.00: ER (expression ratio) gene yjaE (E. coli JM109 genes; 10 μg/mL asiatic acid) | ER (expression ratio) gene b2834 (E. coli JM109 genes; 30 μg/mL asiatic acid) | ER (expression ratio) gene iIvG_1 (E. coli JM109 genes; 30 μg/mL asiatic acid) | ER (expression ratio) gene pstS (E. coli JM109 genes; 30 μg/mL asiatic acid) | ER (expression ratio) gene tauA (E. coli JM109 genes; 30 μg/mL asiatic acid)
3.48: ER (expression ratio) gene cysA (E. coli JM109 genes; 30 μg/mL asiatic acid) | ER (expression ratio) gene cysK (E. coli JM109 genes; 30 μg/mL asiatic acid) | ER (expression ratio) gene iIvL (E. coli JM109 genes; 30 μg/mL asiatic acid)
4.92: ER (expression ratio) gene cysU (E. coli JM109 genes; 10 μg/mL asiatic acid) | ER (expression ratio) gene cysP (E. coli JM109 genes; 30 μg/mL asiatic acid) | ER (expression ratio) gene cysU (E. coli JM109 genes; 30 μg/mL asiatic acid)
3.25: ER (expression ratio) gene b2670 (E. coli JM109 genes; 10 μg/mL asiatic acid) | ER (expression ratio) gene ftn (E. coli JM109 genes; 10 μg/mL asiatic acid) | ER (expression ratio) gene yeeE (E. coli JM109 genes; 10 μg/mL asiatic acid) | ER (expression ratio) gene cysI (E. coli JM109 genes; 30 μg/mL asiatic acid) | ER (expression ratio) gene cysM (E. coli JM109 genes; 30 μg/mL asiatic acid) | ER (expression ratio) gene fliY (E. coli JM109 genes; 30 μg/mL asiatic acid)
9.85: ER (expression ratio) gene nlpA (E. coli JM109 genes; 30 μg/mL asiatic acid) | ER (expression ratio) gene yjiD (E. coli JM109 genes; 30 μg/mL asiatic acid)
2.14: ER (expression ratio) gene b1963 (E. coli JM109 genes; 10 μg/mL asiatic acid) | ER (expression ratio) gene b2332 (E. coli JM109 genes; 10 μg/mL asiatic acid) | ER (expression ratio) gene dgt (E. coli JM109 genes; 10 μg/mL asiatic acid) | ER (expression ratio) gene glgS (E. coli JM109 genes; 10 μg/mL asiatic acid) | ER (expression ratio) gene b2420 (E. coli JM109 genes; 30 μg/mL asiatic acid) | ER (expression ratio) gene b2531 (E. coli JM109 genes; 30 μg/mL asiatic acid) | ER (expression ratio) gene pssR (E. coli JM109 genes; 30 μg/mL asiatic acid) | ER (expression ratio) gene yeeE (E. coli JM109 genes; 30 μg/mL asiatic acid) | ER (expression ratio) gene yjaE (E. coli JM109 genes; 30 μg/mL asiatic acid)
~80%: inhibition at 10 µg/mL (E. coli JM109; 10 μg/ml)
11.31: ER (expression ratio) gene cysN (E. coli JM109 genes; 10 μg/mL asiatic acid)
13.00: ER (expression ratio) gene cbl (E. coli JM109 genes; 30 μg/mL asiatic acid)
6.50: ER (expression ratio) gene ybiK (E. coli JM109 genes; 10 μg/mL asiatic acid) | ER (expression ratio) gene yicL (E. coli JM109 genes; 10 μg/mL asiatic acid) | ER (expression ratio) gene cysD (E. coli JM109 genes; 30 μg/mL asiatic acid)
5.66: ER (expression ratio) gene ybiK (E. coli JM109 genes; 30 μg/mL asiatic acid)
~85%: inhibition at 15 µg/mL (E. coli JM109; 15 μg/ml)
2.30: ER (expression ratio) gene b2834 (E. coli JM109 genes; 10 μg/mL asiatic acid) | ER (expression ratio) gene bolA (E. coli JM109 genes; 10 μg/mL asiatic acid) | ER (expression ratio) gene iIvL (E. coli JM109 genes; 10 μg/mL asiatic acid) | ER (expression ratio) gene msrA (E. coli JM109 genes; 10 μg/mL asiatic acid) | ER (expression ratio) gene yaiB (E. coli JM109 genes; 10 μg/mL asiatic acid) | ER (expression ratio) gene b1729 (E. coli JM109 genes; 30 μg/mL asiatic acid) | ER (expression ratio) gene b1963 (E. coli JM109 genes; 30 μg/mL asiatic acid) | ER (expression ratio) gene b2332 (E. coli JM109 genes; 30 μg/mL asiatic acid) | ER (expression ratio) gene dgt (E. coli JM109 genes; 30 μg/mL asiatic acid) | ER (expression ratio) gene glgS (E. coli JM109 genes; 30 μg/mL asiatic acid) | ER (expression ratio) gene yeeD (E. coli JM109 genes; 30 μg/mL asiatic acid) | ER (expression ratio) gene yicG (E. coli JM109 genes; 30 μg/mL asiatic acid)
7.46: ER (expression ratio) gene yjiD (E. coli JM109 genes; 10 μg/mL asiatic acid) | ER (expression ratio) gene cysN (E. coli JM109 genes; 30 μg/mL asiatic acid)
3.73: ER (expression ratio) gene cysJ (E. coli JM109 genes; 10 μg/mL asiatic acid) | ER (expression ratio) gene cysM (E. coli JM109 genes; 10 μg/mL asiatic acid) | ER (expression ratio) gene yedO (E. coli JM109 genes; 10 μg/mL asiatic acid) | ER (expression ratio) gene yeeD (E. coli JM109 genes; 10 μg/mL asiatic acid) | ER (expression ratio) gene yciW (E. coli JM109 genes; 30 μg/mL asiatic acid)
4.29: ER (expression ratio) gene b2420 (E. coli JM109 genes; 10 μg/mL asiatic acid) | ER (expression ratio) gene cysI (E. coli JM109 genes; 10 μg/mL asiatic acid) | ER (expression ratio) gene cysP (E. coli JM109 genes; 10 μg/mL asiatic acid) | ER (expression ratio) gene cysB (E. coli JM109 genes; 30 μg/mL asiatic acid)
